Source: patent US20210267960A1, “METHODS OF TREATMENT OF INFLAMMATORY CYTOKINE-RELATED ARTHRITIC DISORDERS” (Bridge Pharma Inc., priority 2020, published 2021)

Assays:
[1] = system: human white blood cells; test: Induced cytokine release from stimulated human white blood cells (overall conclusion); assay type: cell-based; details: PHA 5 μg/ml, 16 hours; conclusion in words
Experimental: The objective of this study was to assess the ability of norketotifen to inhibit induced cytokine release from stimulated human white blood cells.
The study was conducted in two phases. The first phase included optimization of the test methodology and including dose-range finding studies, using buffy coats from 3 human donors, stimulated with phytohemagglutinin (PHA). Following optimization of the test conditions, a final protocol was issued. In the following Main Study, white blood cells (buffy coats) from 5 healthy human donors were stimulated with PHA, 5 μg/ml. The concentrations of the test article and the duration of exposure were optimized to obtain acceptable dose-response ratios. Thus, the inhibitory effects of three concentrations of NK and one concentration of ketotifen were evaluated in the Main Study. The buffy coats containing white blood cells from 5 male human donors were resuspended in assay media and were pre-incubated for 30 min with either vehicle/saline, ketotifen 10 μM ([…]) or norketotifen 1 μM and 10 μM and 100 μM, corresponding to 0.411 μg/ml, 4.11 μg/ml and 41.1 μg/ml, resp. Following these preincubations, the white blood cells were stimulated for 16 hours with PHA, 5 μg/ml. The cell system supernatants were then harvested and stored frozen pending analyses. […]

[2] = system: mouse; details: mouse model of sedation; U.S. Pat. Nos. 7,226,934 and 7,557,128; cited from earlier work
[3] = Preclinical studies of immune-suppressive effects; details: compared with the steroids
Source text: Norketotifen is thus particularly useful in the treatment of diseases treatable with the TNFα blocking agents adalimumab (Humira®), infliximab (Remicade®, Inflectra®), certolizumab pegol (Cimzia®), golimumab (Simponi®) and enteracept (Enbrel®); the IL-4 and IL-13 inhibitors dupilumab (Dupixent®), pascolizumab, pitrakinra, and lebrikizumab, anrukinzumab, and tralokinumab; and the IL-5 inhibitors mepolizumab, reslizumab and benralizumab. Advantageously, norketotifen is a small molecule and oral and parenteral administration of norketotifen can provide for convenience and significant cost savings.

## CN1CCC(=C2c3ccccc3CC(=O)c3sccc32)CC1 [Ketotifen, ketotifen, reference compound]
[1]
  Inhibition of the release of cytokines from human white blood cells: No statistically significant inhibition

## O=C(O)/C=C/C(=O)O.O=C1Cc2ccccc2C(=C2CCNCC2)c2ccsc21 [R-isomer, R-norketotifen]
[2]
  Sedative effects: sedative effects were attributed to the R-isomer

## O=C1Cc2ccccc2C(=C2CCNCC2)c2ccsc21 (racemic) [Norketotifen, norketotifen]
[3]
  Adverse immune-suppressive effects: free from the adverse immune-suppressive effects
[1]
  Inhibition of the release of cytokines from human white blood cells: potently and dose-dependently inhibited
